Data from PubChem BioAssay (NCI).
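48-hour exposure; five concentrations; linearly interpolated endpoints. The concentration for full growth arrest is given as TGI.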

How the values were obtained:
Experiment in all cases: NCI-60 cell line screen, 48 h
ACHN renal = tested on: ACHN renal
BT-549 breast = tested on: BT-549 breast
CAKI-1 renal = tested on: CAKI-1 renal
DU-145 prostate = tested on: DU-145 prostate
EKVX NSCLC = tested on: EKVX NSCLC
HCT-116 colon = tested on: HCT-116 colon
HT29 colon = tested on: HT29 colon
K-562 leukemia = tested on: K-562 leukemia
MCF7 breast = tested on: MCF7 breast
MDA-N = tested on: MDA-N
NCI-H226 lung = tested on: NCI-H226 lung
SF-268 CNS = tested on: SF-268 CNS
SF-539 CNS = tested on: SF-539 CNS
SK-MEL-2 melanoma = tested on: SK-MEL-2 melanoma
SK-OV-3 ovarian = tested on: SK-OV-3 ovarian
SW-620 colon = tested on: SW-620 colon
UACC-62 melanoma = tested on: UACC-62 melanoma

| Compound | TGI (ACHN renal) | TGI (BT-549 breast) | TGI (CAKI-1 renal) | TGI (DU-145 prostate) | TGI (EKVX NSCLC) | TGI (HCT-116 colon) | TGI (HT29 colon) | TGI (K-562 leukemia) | TGI (MCF7 breast) | TGI (MDA-N) | TGI (NCI-H226 lung) | TGI (SF-268 CNS) | TGI (SF-539 CNS) | TGI (SK-MEL-2 melanoma) | TGI (SK-OV-3 ovarian) | TGI (SW-620 colon) | TGI (UACC-62 melanoma) |
| --- | --- | --- | --- | --- | --- | --- | --- | --- | --- | --- | --- | --- | --- | --- | --- | --- | --- |
| O=c1cc(CBr)c2ccc(O)cc2o1 | > 100 µM | 77 µM | > 100 µM | > 100 µM | 91.1 µM | > 100 µM | > 100 µM | > 100 µM | > 100 µM | > 100 µM | > 100 µM | > 100 µM | > 100 µM | > 100 µM | > 100 µM | > 100 µM | > 100 µM |
| COc1cc(C2c3cc4c(cc3OC(Nc3ccccc3)C2C)OCO4)cc(OC)c1OC (stereo not drawn) | > 61.4 µM | > 90.9 µM | > 100 µM | > 100 µM | > 88.5 µM | > 33 µM | > 100 µM | > 100 µM | > 100 µM | 0.784 µM | 12.8 µM | > 100 µM | 0.697 µM | > 100 µM | > 100 µM | > 100 µM | > 100 µM |
| CCCCC(=O)NC1(c2cc3ccccc3s2)CCCCC1 | > 100 µM | > 100 µM | > 100 µM | > 100 µM | > 100 µM | > 100 µM | > 100 µM | > 100 µM | > 100 µM | > 100 µM | > 100 µM | > 100 µM | > 100 µM | > 100 µM | > 100 µM | > 100 µM | > 100 µM |
| N#CC(Nc1ccccc1)c1ccc(C(C#N)Nc2ccccc2)cc1 (stereo not drawn) | > 100 µM | > 100 µM | > 100 µM | > 100 µM | > 100 µM | > 100 µM | 80.9 µM | > 100 µM | > 100 µM | > 100 µM | > 100 µM | > 100 µM | 69 µM | > 100 µM | > 100 µM | > 100 µM | > 100 µM |
| Cc1ccc(S(=O)(=O)NC2C(=O)c3ccccc3C(=O)C2n2cnc3ccccc32)cc1 (stereo not drawn) | > 100 µM | > 100 µM | > 100 µM | > 100 µM | > 100 µM | > 100 µM | > 100 µM | > 100 µM | > 100 µM | 45.5 µM | > 100 µM | > 100 µM | 62.6 µM | 51.7 µM | > 100 µM | 94.4 µM | 74.4 µM |
| O=c1[nH]nc(Cc2ccccc2)n1/N=C/c1ccccc1Cl | > 100 µM | > 100 µM | > 100 µM | > 100 µM | > 100 µM | > 100 µM | > 100 µM | > 100 µM | > 100 µM | > 100 µM | > 100 µM | > 100 µM | > 100 µM | > 100 µM | > 100 µM | > 100 µM | > 100 µM |
| c1ccc(Nc2nnc(Cn3ccc4ccccc43)s2)cc1 | > 100 µM | > 100 µM | 70.6 µM | > 100 µM | > 100 µM | > 100 µM | > 100 µM | > 100 µM | > 100 µM | > 100 µM | > 100 µM | > 100 µM | > 100 µM | > 100 µM | > 100 µM | > 100 µM | > 100 µM |
| COc1ccc(-c2c(CN3CCOCC3)sc3nc4ccccc4n23)cc1 | > 100 µM | > 100 µM | > 100 µM | > 100 µM | > 57.4 µM | > 57 µM | 31.1 µM | > 28.7 µM | > 100 µM | 5.38 µM | > 79.8 µM | 98.2 µM | 41.7 µM | > 100 µM | 94.9 µM | > 100 µM | > 100 µM |
| CCCCCC(CO)C(O)(C(F)(F)F)C(F)(F)F (stereo not drawn) | > 10 µM | > 10 µM | > 10 µM | > 10 µM | > 10 µM | > 10 µM | > 10 µM | > 10 µM | > 10 µM | > 10 µM | > 10 µM | > 10 µM | > 10 µM | > 10 µM | > 10 µM | > 10 µM | > 10 µM |
| COc1ccc(C(c2c[nH]c3ccc(Br)cc23)c2c[nH]c3ccc(Br)cc23)cc1 | 0.845 µM | 3.16 µM | 1.64 µM | 1.38 µM | 1.49 µM | 0.349 µM | 1.03 µM | 0.423 µM | 0.765 µM | 0.552 µM | 1.7 µM | 0.631 µM | 2.06 µM | 1.22 µM | 2.58 µM | 1.1 µM | 0.689 µM |
| CC(=O)NC1C(O)C(O)C(CO)OC1n1ncc(=O)[nH]c1=O (stereo not drawn) | > 100 µM | > 100 µM | > 100 µM | > 100 µM | > 100 µM | > 100 µM | > 100 µM | > 100 µM | > 100 µM | > 100 µM | > 100 µM | > 100 µM | > 100 µM | > 100 µM | > 100 µM | > 100 µM | > 100 µM |
| CCSC1=N/C(=C\c2ccco2)C(Cl)=N1 | > 100 µM | > 100 µM | > 100 µM | > 100 µM | > 100 µM | > 100 µM | > 100 µM | > 100 µM | > 100 µM | > 100 µM | > 100 µM | > 100 µM | > 100 µM | > 100 µM | > 100 µM | > 100 µM | > 100 µM |
| NC1=NN(c2ccccc2)C2(O)c3ccncc3C3=NN(c4ccccc4)C(=O)C132 (stereo not drawn) | > 100 µM | > 100 µM | > 100 µM | > 100 µM | > 100 µM | > 100 µM | > 100 µM | > 100 µM | > 100 µM | > 100 µM | > 100 µM | > 100 µM | > 100 µM | > 100 µM | > 100 µM | > 100 µM | > 100 µM |
| NC(=O)C(c1ccccc1)N1OC2C(=O)N(c3cccc4ccccc34)C(=O)C2C1c1c2ccccc2c(Cl)c2ccccc12 (stereo not drawn) | 20.2 µM | 22 µM | 22.7 µM | 46.6 µM | 30 µM | 3.05 µM | 14.7 µM | > 50 µM | 11.2 µM | 7.88 µM | 13.5 µM | 25.1 µM | 12.9 µM | 19.6 µM | > 50 µM | > 50 µM | 13.8 µM |
